Assay results: patent US20100323990A1, “SHIP 1 MODULATOR PRODRUGS” (THE UNIVERSITY OF BRITISH COLUMBIA, priority 2006, published 2010)

Legend:
SHIP C2 domain [1] = assay: Scintillation proximity assay, C2 domain; format: binding; conditions: C2 domain 10 nM on SPA beads
Description: Compound 100 was radiolabelled with tritium by GE Healthcare (Piscataway, N.J.) to a specific activity of 42 Ci/mmole. Copper chelate (His-Tag) YSi SPA Scintillation Beads (GE ealthcare, Piscataway, N.J.) were diluted in 0.25% BSA/TBS to 1.5 mg/mL and recombinant, His6-tagged protein added at the indicated concentrations: wild-type (1 pM), ΔC2 SHIP enzyme (1 pM) or C2 domain (10 nM). Protein was allowed to bind 1 h at 23° C., and 250 μg of beads were aliquoted per well of a 96-well plate. 5 μCi of [^3H]-Compound 100 was added per well, the plate gently agitated for 30 min and the amount of bead associated radioactivity quantified by counting in a Wallac BetaPlate plate scintillation counter.
Isolated recombinant, His6-tagged C2 domain was expressed and its PI-3,4-P2 binding ability was determined using protein lipid overlay assays. Purified C2 domain was incubated with membrane strips spotted with PI-3,4-P2 and bound protein detected using an anti-His6 antibody. As shown in FIG. 11C the C2 domain bound PI-3,4-P2 and this binding was inhibited by Compound 100, consistent with both Compound 100 and PI-3,4-P2 interacting with the C2 domain at a common binding site.

SHIP C2 domain [2] = assay: Protein lipid overlay assay, C2 domain binding to PI-3,4-P2; conditions: 4 μM Compound 100, 30 min at 23° C.
Description: Protein lipid overlay (PLO) assays were performed essentially as described with minor modifications. Lyophilized phosphatidylinositol-3,4-bisphosphate diC16 (PIP2, Echelon Biosciences, Salt Lake City, Utah) was reconstituted in a 2:1.8 solution of methanol and water. PVDF membranes (Millipore, Missisauga, Ont) were initially wetted in methanol for 1 minute, and washed 3×5 min with water, and gently agitated in TBST buffer (20 mM Tris pH 7.5, 0.15 M NaCl (TBS) with 0.05% Tween 20) at 23° C. overnight. Treated membranes were air-dried and dilutions of reconstituted lipids were spotted in 1 μl aliquots to give the indicated amount of PIP2 per membrane spot. Membranes were dried completely and blocked with blocking buffer (3% BSA in TBS with 0.05% NaN3) for 1 h at 23° C. Purified, recombinant C2 domain was diluted into blocking buffer (5 μM final) and treated with 4 μM Compound 100 or EtOH control for 30 min at 23° C. prior to overnight incubation with the PIP2 spotted membranes. […] After washing, bound proteins were detected and quantified on a Li-Cor Odyssey scanner (Lincoln, Nebr.).
Isolated recombinant, His6-tagged C2 domain was expressed and its PI-3,4-P2 binding ability was determined using protein lipid overlay assays. Purified C2 domain was incubated with membrane strips spotted with PI-3,4-P2 and bound protein detected using an anti-His6 antibody. […]

Mast cells = assay: Stimulation of mast cells by FcεRI crosslinking (Assay 4); format: cell-based; conditions: test compound 30 min prior to DNP-HSA
Description: Assay 1) In vitro testing in a SHIP enzyme assay. Test compounds were dissolved in a suitable solvent (e.g. EtOH, DMSO and others) and diluted into aqueous buffer (20 mM Tris HCl, pH 7.5 and 10 mM MgCl2). SHIP enzyme assays were performed in 96-well microtitre plates with 10 ng of enzyme/well in a total volume of 25 μL of 20 mM Tris HCl, pH 7.5 and 10 mM MgCl2. SHIP enzyme was incubated with test extracts (provided in solvent) or vehicle for 15 min at 23° C. before the addition of 100 μM inositol-1,3,4,5-tetrakisphosphate (Echelon Biosciences Inc, Salt Lake City, Utah). After 20 min at 37° C. and the amount of inorganic phosphate released assessed by the addition of Malachite Green reagent and absorbance measurement at 650 nm. Assay 2) Macrophage TNF-α production. J774.1a macrophage cells were treated with 10 μg/mL of test compound dissolved in solvent (e.g. cyclodextran) for 40 minutes prior to the addition of 100 ng/mL LPS. Culture supernatants were collected after 2 hr and 5 hr for TNF-α determination by ELISA. Assay 3) Macrophage TNF-α NO assay. J774.1a macrophage cells were treated with 10 μg/ml of test compound dissolved in solvent for 40 minutes prior to the addition of LPS. Culture supernatants were collected after 24 hr. for determination of NO concentration using the Griess reagent. Assay 4) Stimulation of mast cells by FcεRI crosslinking. Mast cells were pre-loaded overnight in BMMC medium lacking IL-3 with 0.1 μg/ml anti-DNP IgE (SPE-7, Sigma, Oakville, Ont). For calcium flux measurements, cells were incubated with 2 μM fura 2-acetoxymethyl ester (Molecular Probes, Eugene, Oreg.) in Tyrode's buffer at 23° C. for 45 min. Cells were then washed and incubated in the presence of the test compound 30 min prior to stimulation with the indicated concentration of DNP-human serum albumin (DNP-HSA). Calcium influx was monitored by spectrofluorometry as described previously. For analysis of intracellular signaling, cells were pre-loaded with anti-DNP IgE as above, pre-treated with the test compound for 30 min at 37° C. and stimulated with 20 ng/ml DNP-HSA for 5 min. Total cell lysates were then prepared and analyzed for phospho-PKB, phospho-p38^MAPK, phospho-MAPK, Grb-2 (Cell Signalling, Mississauga, Ont) and SHIP^6 by immunoblot analysis. Assay 5) Mouse acute cutaneous anaphylaxis model. […] The ability of SHIP activators to reduce tumor cell survival was assessed in MM cell lines treated with the test compound. The lines OPM1, OPM2, MM.1S and RPMI 8226 were plated at a density of 1×10^5 cells/mL in 200 μL of medium with various concentrations of the test compound, and viable cell numbers were determined on day 3 and day 5 by trypan blue exclusion. […]

Cc1cc(O)cc2c1[C@]1(C)CCC3C(C)(C)CCC[C@]3(C)[C@H]1C2 (stereo partly drawn) [Compound 100]
binding of [3H]-Compound 100 to C2 domain (SHIP C2 domain [1]): directly bind the C2 domain | binding of C2 domain to PI-3,4-P2 (SHIP C2 domain [2]): inhibited | Assay 4: Stimulation of mast cells by FcεRI crosslinking, desired activity (Mast cells): +
